Laboratory results from ChEMBL document CHEMBL5214998, “Development of Macrocyclic PRMT5-Adaptor Protein Interaction Inhibitors” (J Med Chem, 2022).
Numbered stars: 1 amine (or outer) side, 2 acyl side, 3 side chain; on linkers, the order of the positions; unused ones are H or OH. Bridge positions count the residues as written; N and C are the ends. Square brackets hold non-standard residues; d marks the D form. Peptide text beside a SMILES is read from it. * marks the point of attachment. FITC = O=C1OC2(c3ccc(O)cc3Oc3cc(O)ccc32)c2ccc(NC(=S)*)cc21; Phe(4-NO2) = N[C@@H](Cc1ccc([N+](=O)[O-])cc1)C(=O)O; Phe(3,4-F2) = N[C@@H](Cc1ccc(F)c(F)c1)C(=O)O; Bip = N[C@@H](Cc1ccc(-c2ccccc2)cc1)C(=O)O; Phe(4-Br) = N[C@@H](Cc1ccc(Br)cc1)C(=O)O; Phe(4-Cl) = N[C@@H](Cc1ccc(Cl)cc1)C(=O)O; Hag = O=C([C@H](CCC=[*:3])N[*:1])[*:2]; Phe(3-F) = N[C@@H](Cc1cccc(F)c1)C(=O)O; Phe(4-F) = N[C@@H](Cc1ccc(F)cc1)C(=O)O; Phe(4-I) = N[C@@H](Cc1ccc(I)cc1)C(=O)O; Gla = N[C@@H](CC(C(=O)O)C(=O)O)C(=O)O; AllylGly = C=CC[C@H](N)C(=O)O

Legend:
[1] = biological target: PRMT5/MEP50 complex (Homo sapiens, UniProt O14744); assay: (§1) Binding affinity to PRMT5/MEP50 (unknown origin) assessed as dissociation constant by FITC- Competitive binding assay; format: protein-complex assay
Sequence of PRMT5/MEP50 complex (Homo sapiens, UniProt O14744) (O14744 whole entry): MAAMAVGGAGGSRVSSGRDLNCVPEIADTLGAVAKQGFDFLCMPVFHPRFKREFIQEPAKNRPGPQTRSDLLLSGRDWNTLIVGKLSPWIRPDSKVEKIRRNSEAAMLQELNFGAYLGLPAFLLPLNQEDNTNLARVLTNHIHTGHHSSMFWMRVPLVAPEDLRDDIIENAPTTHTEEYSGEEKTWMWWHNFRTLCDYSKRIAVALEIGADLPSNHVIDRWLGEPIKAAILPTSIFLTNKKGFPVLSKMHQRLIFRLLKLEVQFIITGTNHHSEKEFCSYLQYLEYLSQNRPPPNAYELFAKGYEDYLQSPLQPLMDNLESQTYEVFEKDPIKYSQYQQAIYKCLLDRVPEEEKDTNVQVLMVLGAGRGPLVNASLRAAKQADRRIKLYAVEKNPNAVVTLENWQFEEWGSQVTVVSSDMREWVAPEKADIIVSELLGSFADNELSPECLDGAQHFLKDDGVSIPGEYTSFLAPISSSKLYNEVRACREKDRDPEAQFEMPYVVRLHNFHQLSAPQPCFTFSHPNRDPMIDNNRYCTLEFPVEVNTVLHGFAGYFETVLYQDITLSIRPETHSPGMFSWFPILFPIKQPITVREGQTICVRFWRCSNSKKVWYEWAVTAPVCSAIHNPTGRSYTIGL
Sequence of PRMT5/MEP50 complex (Homo sapiens, UniProt O14744) (Q9BQA1 whole entry, further chain): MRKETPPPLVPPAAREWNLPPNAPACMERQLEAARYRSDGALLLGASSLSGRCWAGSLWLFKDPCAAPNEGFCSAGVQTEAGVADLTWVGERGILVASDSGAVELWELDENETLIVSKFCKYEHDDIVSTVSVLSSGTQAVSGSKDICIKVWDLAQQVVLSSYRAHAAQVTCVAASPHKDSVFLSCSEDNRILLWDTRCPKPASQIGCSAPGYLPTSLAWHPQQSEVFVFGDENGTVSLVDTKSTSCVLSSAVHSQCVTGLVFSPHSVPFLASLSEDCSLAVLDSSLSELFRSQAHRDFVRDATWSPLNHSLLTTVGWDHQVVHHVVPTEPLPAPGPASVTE

[2] = biological target: PRMT5/MEP50 complex (Homo sapiens, UniProt O14744+Q9BQA1); assay: as §1; format: protein-complex assay
Sequence of PRMT5/MEP50 complex (Homo sapiens, UniProt O14744+Q9BQA1) (O14744 whole entry): as the sequence (O14744 whole entry) above
Sequence of PRMT5/MEP50 complex (Homo sapiens, UniProt O14744+Q9BQA1) (Q9BQA1 whole entry): as the sequence (Q9BQA1 whole entry, further chain) above

Row | Kd [1] | Kd [2] | Structure (SMILES)
1 | 0.391 µM |  | CC(=O)N[C@H](C(=O)N1CCC[C@H]1C(=O)NCC(=O)N[C@@H](CCC(N)=O)C(=O)N[C@@H](Cc1ccc(F)cc1)C(=O)N[C@@H](CC(=O)O)C(=O)N[C@@H](CC(=O)O)C(=O)N[C@@H](C)C(=O)N[C@@H](CC(=O)O)C(=O)N[C@@H](CCCCNC(=S)Nc1ccc2c(c1)C(=O)OC21c2ccc(O)cc2Oc2cc(O)ccc21)C(N)=O)C(C)C (Ac-VPGQ[Phe(4-F)]DDADK(FITC)-NH2)
2 | 0.447 µM |  | CC(=O)N[C@H](C(=O)N1CCC[C@H]1C(=O)NCC(=O)N[C@@H](CCC(N)=O)C(=O)N[C@@H](Cc1ccc(-c2ccccc2)cc1)C(=O)N[C@@H](CC(=O)O)C(=O)N[C@@H](CC(=O)O)C(=O)N[C@@H](C)C(=O)N[C@@H](CC(=O)O)C(=O)N[C@@H](CCCCNC(=S)Nc1ccc2c(c1)C(=O)OC21c2ccc(O)cc2Oc2cc(O)ccc21)C(N)=O)C(C)C (Ac-VPGQ[Bip]DDADK(FITC)-NH2)
3 | 0.279 µM |  | CC(=O)N[C@H](C(=O)N1CCC[C@H]1C(=O)NCC(=O)N[C@@H](CCC(N)=O)C(=O)N[C@@H](Cc1ccc(I)cc1)C(=O)N[C@@H](CC(=O)O)C(=O)N[C@@H](CC(=O)O)C(=O)N[C@@H](C)C(=O)N[C@@H](CC(=O)O)C(=O)N[C@@H](CCCCNC(=S)Nc1ccc2c(c1)C(=O)OC21c2ccc(O)cc2Oc2cc(O)ccc21)C(N)=O)C(C)C (Ac-VPGQ[Phe(4-I)]DDADK(FITC)-NH2)
4 |  | > 2 µM | CC(=O)N[C@H](C(=O)N1CCC[C@H]1C(=O)N[C@H]1CC/C=C/CC[C@H](C(=O)N[C@@H](CC(=O)O)C(=O)N[C@@H](C)C(=O)N[C@@H](CC(=O)O)C(=O)N[C@@H](CCCCNC(=S)Nc2ccc3c(c2)C(=O)OC32c3ccc(O)cc3Oc3cc(O)ccc32)C(N)=O)NC(=O)[C@H](Cc2ccccc2)NC(=O)[C@H](CCC(N)=O)NC1=O)C(C)C
5 |  | 0.089 µM | CC(=O)N[C@H](C(=O)N1CCC[C@@H]1C(=O)N[C@H]1CCCCC[C@@H](C(=O)N[C@@H](CC(=O)O)C(=O)N[C@@H](C)C(=O)N[C@@H](CC(C(=O)O)C(=O)O)C(=O)N[C@@H](CCCCNC(=S)Nc2ccc3c(c2)C(=O)OC32c3ccc(O)cc3Oc3cc(O)ccc32)C(N)=O)NC(=O)[C@H](Cc2ccc([N+](=O)[O-])cc2)NC(=O)[C@H](CCC(N)=O)NC1=O)C(C)C
6 | > 2 µM |  | CC(=O)N[C@H](C(=O)N1CCC[C@H]1C(=O)N[C@H]1CCCCCC[C@@H](C(=O)N[C@@H](CC(=O)O)C(=O)N[C@@H](C)C(=O)N[C@@H](CC(=O)O)C(=O)N[C@@H](CCCCNC(=S)Nc2ccc3c(c2)C(=O)OC32c3ccc(O)cc3Oc3cc(O)ccc32)C(N)=O)NC(=O)[C@H](Cc2ccccc2)NC(=O)[C@H](CCC(N)=O)NC1=O)C(C)C
7 | 0.412 µM |  | CC(=O)N[C@H](C(=O)N1CCC[C@H]1C(=O)NCC(=O)N[C@@H](CCC(N)=O)C(=O)N[C@@H](Cc1ccc(F)c(F)c1)C(=O)N[C@@H](CC(=O)O)C(=O)N[C@@H](CC(=O)O)C(=O)N[C@@H](C)C(=O)N[C@@H](CC(=O)O)C(=O)N[C@@H](CCCCNC(=S)Nc1ccc2c(c1)C(=O)OC21c2ccc(O)cc2Oc2cc(O)ccc21)C(N)=O)C(C)C (Ac-VPGQ[Phe(3,4-F2)]DDADK(FITC)-NH2)
8 | 0.144 µM |  | CC(=O)N[C@H](C(=O)N1CCC[C@H]1C(=O)NCC(=O)N[C@@H](CCC(N)=O)C(=O)N[C@@H](Cc1ccc(Cl)cc1)C(=O)N[C@@H](CC(=O)O)C(=O)N[C@@H](CC(=O)O)C(=O)N[C@@H](C)C(=O)N[C@@H](CC(C(=O)O)C(=O)O)C(=O)N[C@@H](CCCCNC(=S)Nc1ccc2c(c1)C(=O)OC21c2ccc(O)cc2Oc2cc(O)ccc21)C(N)=O)C(C)C (Ac-VPGQ[Phe(4-Cl)]DDA[Gla]K(FITC)-NH2)
9 |  | > 2 µM | CC(=O)N[C@H](C(=O)N1CCC[C@H]1C(=O)N[C@H]1C/C=C\CC[C@H](C(=O)N[C@@H](CC(=O)O)C(=O)N[C@@H](C)C(=O)N[C@@H](CC(=O)O)C(=O)N[C@@H](CCCCNC(=S)Nc2ccc3c(c2)C(=O)OC32c3ccc(O)cc3Oc3cc(O)ccc32)C(N)=O)NC(=O)[C@H](Cc2ccccc2)NC(=O)[C@H](CCC(N)=O)NC1=O)C(C)C
10 | 0.25 µM |  | CC(=O)N[C@H](C(=O)N1CCC[C@H]1C(=O)NCC(=O)N[C@@H](CCC(N)=O)C(=O)N[C@@H](Cc1ccc(Cl)cc1)C(=O)N[C@@H](CC(=O)O)C(=O)N[C@@H](CC(=O)O)C(=O)N[C@@H](C)C(=O)N[C@@H](CC(=O)O)C(=O)N[C@@H](CCCCNC(=S)Nc1ccc2c(c1)C(=O)OC21c2ccc(O)cc2Oc2cc(O)ccc21)C(N)=O)C(C)C (Ac-VPGQ[Phe(4-Cl)]DDADK(FITC)-NH2)
11 | 0.654 µM |  | CC(=O)N[C@H](C(=O)N1CCC[C@H]1C(=O)NCC(=O)N[C@@H](CCC(N)=O)C(=O)N[C@@H](Cc1cccc(F)c1)C(=O)N[C@@H](CC(=O)O)C(=O)N[C@@H](CC(=O)O)C(=O)N[C@@H](C)C(=O)N[C@@H](CC(=O)O)C(=O)N[C@@H](CCCCNC(=S)Nc1ccc2c(c1)C(=O)OC21c2ccc(O)cc2Oc2cc(O)ccc21)C(N)=O)C(C)C (Ac-VPGQ[Phe(3-F)]DDADK(FITC)-NH2)
12 |  | > 2 µM | CC(=O)N[C@H](C(=O)N1CCC[C@H]1C(=O)N[C@H]1CCCCC[C@H](C(=O)N[C@@H](CC(=O)O)C(=O)N[C@@H](C)C(=O)N[C@@H](CC(=O)O)C(=O)N[C@@H](CCCCNC(=S)Nc2ccc3c(c2)C(=O)OC32c3ccc(O)cc3Oc3cc(O)ccc32)C(N)=O)NC(=O)[C@H](Cc2ccccc2)NC(=O)[C@H](CCC(N)=O)NC1=O)C(C)C
13 |  | > 2 µM | CC(=O)N[C@H](C(=O)N1CCC[C@H]1C(=O)N[C@H]1CCCCCC[C@H](C(=O)N[C@@H](CC(=O)O)C(=O)N[C@@H](C)C(=O)N[C@@H](CC(=O)O)C(=O)N[C@@H](CCCCNC(=S)Nc2ccc3c(c2)C(=O)OC32c3ccc(O)cc3Oc3cc(O)ccc32)C(N)=O)NC(=O)[C@H](Cc2ccccc2)NC(=O)[C@H](CCC(N)=O)NC1=O)C(C)C
14 | 0.078 µM |  | CC(=O)N[C@H](C(=O)N1CCC[C@H]1C(=O)NCC(=O)N[C@@H](CCC(N)=O)C(=O)N[C@@H](Cc1ccc([N+](=O)[O-])cc1)C(=O)N[C@@H](CC(=O)O)C(=O)N[C@@H](CC(=O)O)C(=O)N[C@@H](C)C(=O)N[C@@H](CC(C(=O)O)C(=O)O)C(=O)N[C@@H](CCCCNC(=S)Nc1ccc2c(c1)C(=O)OC21c2ccc(O)cc2Oc2cc(O)ccc21)C(N)=O)C(C)C (Ac-VPGQ[Phe(4-NO2)]DDA[Gla]K(FITC)-NH2)
15 | 0.245 µM |  | CC(=O)N[C@H](C(=O)N1CCC[C@H]1C(=O)NCC(=O)N[C@@H](CCC(N)=O)C(=O)N[C@@H](Cc1ccccc1)C(=O)N[C@@H](CC(=O)O)C(=O)N[C@@H](CC(=O)O)C(=O)N[C@@H](C)C(=O)N[C@@H](CC(C(=O)O)C(=O)O)C(=O)N[C@@H](CCCCNC(=S)Nc1ccc2c(c1)C(=O)OC21c2ccc(O)cc2Oc2cc(O)ccc21)C(N)=O)C(C)C (Ac-VPGQFDDA[Gla]K(FITC)-NH2)
16 | 0.317 µM |  | CC(=O)N[C@H](C(=O)N1CCC[C@H]1C(=O)NCC(=O)N[C@@H](CCC(N)=O)C(=O)N[C@@H](Cc1ccc(Br)cc1)C(=O)N[C@@H](CC(=O)O)C(=O)N[C@@H](CC(=O)O)C(=O)N[C@@H](C)C(=O)N[C@@H](CC(=O)O)C(=O)N[C@@H](CCCCNC(=S)Nc1ccc2c(c1)C(=O)OC21c2ccc(O)cc2Oc2cc(O)ccc21)C(N)=O)C(C)C (Ac-VPGQ[Phe(4-Br)]DDADK(FITC)-NH2)
17 | 0.562 µM |  | CC(=O)N[C@H](C(=O)N1CCC[C@H]1C(=O)N[C@H]1CC/C=C/C[C@@H](C(=O)N[C@@H](CC(=O)O)C(=O)N[C@@H](C)C(=O)N[C@@H](CC(=O)O)C(=O)N[C@@H](CCCCNC(=S)Nc2ccc3c(c2)C(=O)OC32c3ccc(O)cc3Oc3cc(O)ccc32)C(N)=O)NC(=O)[C@H](Cc2ccccc2)NC(=O)[C@H](CCC(N)=O)NC1=O)C(C)C (Ac-VP[Hag]QF[AllylGly]DADK(FITC)-NH2; staple (E) 3-6)
18 | 0.232 µM |  | CC(=O)N[C@H](C(=O)N1CCC[C@H]1C(=O)NCC(=O)N[C@@H](CCC(N)=O)C(=O)N[C@@H](Cc1ccc([N+](=O)[O-])cc1)C(=O)N[C@@H](CC(=O)O)C(=O)N[C@@H](CC(=O)O)C(=O)N[C@@H](C)C(=O)N[C@@H](CC(=O)O)C(=O)N[C@@H](CCCCNC(=S)Nc1ccc2c(c1)C(=O)OC21c2ccc(O)cc2Oc2cc(O)ccc21)C(N)=O)C(C)C (Ac-VPGQ[Phe(4-NO2)]DDADK(FITC)-NH2)

Row | Structure (SMILES) | Kd [1] | Kd [2]
19 | CC(C)[C@H](NC(=O)[C@H](CCCNC(=N)N)NC(=O)[C@H](CO)NC(=O)COCCOCCNC(=S)Nc1ccc2c(c1)C(=O)OC21c2ccc(O)cc2Oc2cc(O)ccc21)C(=O)N[C@H](C(=O)N1CCC[C@H]1C(=O)N[C@H]1CCNC(=O)C[C@H](C(=O)N[C@@H](CC(=O)O)C(=O)N[C@@H](C)C(=O)N[C@@H](CC(=O)O)C(N)=O)NC(=O)[C@H](Cc2ccccc2)NC(=O)[C@H](CCC(N)=O)NC1=O)C(C)C |  | > 2 µM
20 | CC(C)[C@H](NC(=O)[C@H](CCCNC(=N)N)NC(=O)[C@H](CO)NC(=O)COCCOCCNC(=S)Nc1ccc2c(c1)C(=O)OC21c2ccc(O)cc2Oc2cc(O)ccc21)C(=O)N[C@H](C(=O)N1CCC[C@H]1C(=O)N[C@H]1CCCC[C@H](C(=O)N[C@@H](CC(=O)O)C(=O)N[C@@H](C)C(=O)N[C@@H](CC(=O)O)C(N)=O)NC(=O)[C@H](Cc2ccccc2)NC(=O)[C@H](CCC(N)=O)NC1=O)C(C)C |  | > 2 µM
21 | CC(C)[C@H](NC(=O)[C@H](CCCNC(=N)N)NC(=O)[C@H](CO)NC(=O)COCCOCCNC(=S)Nc1ccc2c(c1)C(=O)OC21c2ccc(O)cc2Oc2cc(O)ccc21)C(=O)N[C@H](C(=O)N1CCC[C@H]1C(=O)N[C@H]1C/C=C/C[C@H](C(=O)N[C@@H](CC(=O)O)C(=O)N[C@@H](C)C(=O)N[C@@H](CC(=O)O)C(N)=O)NC(=O)[C@H](Cc2ccccc2)NC(=O)[C@H](CCC(N)=O)NC1=O)C(C)C (stereo in doubt; form 1) |  | > 2 µM
22 | CC(C)[C@H](NC(=O)[C@H](CCCNC(=N)N)NC(=O)[C@H](CO)NC(=O)COCCOCCNC(=S)Nc1ccc2c(c1)C(=O)OC21c2ccc(O)cc2Oc2cc(O)ccc21)C(=O)N[C@H](C(=O)N1CCC[C@H]1C(=O)N[C@H]1CCNC(=O)CC[C@H](C(=O)N[C@@H](CC(=O)O)C(=O)N[C@@H](C)C(=O)N[C@@H](CC(=O)O)C(N)=O)NC(=O)[C@H](Cc2ccccc2)NC(=O)[C@H](CCC(N)=O)NC1=O)C(C)C |  | > 2 µM
23 | CC(C)[C@H](NC(=O)[C@H](CCCNC(=N)N)NC(=O)[C@H](CO)NC(=O)COCCOCCNC(=S)Nc1ccc2c(c1)C(=O)OC21c2ccc(O)cc2Oc2cc(O)ccc21)C(=O)N[C@H](C(=O)N1CCC[C@H]1C(=O)N[C@H]1CCCC[C@@H](C(=O)N[C@@H](CC(=O)O)C(=O)N[C@@H](C)C(=O)N[C@@H](CC(=O)O)C(N)=O)NC(=O)[C@H](Cc2ccccc2)NC(=O)[C@H](CCC(N)=O)NC1=O)C(C)C | 1.29 µM | 
